PMC11219871, “Epigenetic-based differentiation therapy for Acute Myeloid Leukemia” (Nature Communications, 2024)
Several values for one entry are separate records, joined by “and”; a condition that tells them apart may be missing. Identical values can stand only once. Like-named read-outs stand apart in the source and are kept apart here.

How the values were obtained:
[1] = tested on: MOLM-13 i.v. in BALB/cA Rag2-/-γc-/- mice; test: Intravenous xenograft model (survival, CD11b in blood, body weight); format: in vivo, mouse
HDAC4 = biological target: T1, HDAC4 (Homo sapiens, UniProt P56524); test: HDAC assay (Eurofins); format: biochemical
T1 construct: purchased Eurofins (contracted assay service)
T1 sequence (P56524 whole entry): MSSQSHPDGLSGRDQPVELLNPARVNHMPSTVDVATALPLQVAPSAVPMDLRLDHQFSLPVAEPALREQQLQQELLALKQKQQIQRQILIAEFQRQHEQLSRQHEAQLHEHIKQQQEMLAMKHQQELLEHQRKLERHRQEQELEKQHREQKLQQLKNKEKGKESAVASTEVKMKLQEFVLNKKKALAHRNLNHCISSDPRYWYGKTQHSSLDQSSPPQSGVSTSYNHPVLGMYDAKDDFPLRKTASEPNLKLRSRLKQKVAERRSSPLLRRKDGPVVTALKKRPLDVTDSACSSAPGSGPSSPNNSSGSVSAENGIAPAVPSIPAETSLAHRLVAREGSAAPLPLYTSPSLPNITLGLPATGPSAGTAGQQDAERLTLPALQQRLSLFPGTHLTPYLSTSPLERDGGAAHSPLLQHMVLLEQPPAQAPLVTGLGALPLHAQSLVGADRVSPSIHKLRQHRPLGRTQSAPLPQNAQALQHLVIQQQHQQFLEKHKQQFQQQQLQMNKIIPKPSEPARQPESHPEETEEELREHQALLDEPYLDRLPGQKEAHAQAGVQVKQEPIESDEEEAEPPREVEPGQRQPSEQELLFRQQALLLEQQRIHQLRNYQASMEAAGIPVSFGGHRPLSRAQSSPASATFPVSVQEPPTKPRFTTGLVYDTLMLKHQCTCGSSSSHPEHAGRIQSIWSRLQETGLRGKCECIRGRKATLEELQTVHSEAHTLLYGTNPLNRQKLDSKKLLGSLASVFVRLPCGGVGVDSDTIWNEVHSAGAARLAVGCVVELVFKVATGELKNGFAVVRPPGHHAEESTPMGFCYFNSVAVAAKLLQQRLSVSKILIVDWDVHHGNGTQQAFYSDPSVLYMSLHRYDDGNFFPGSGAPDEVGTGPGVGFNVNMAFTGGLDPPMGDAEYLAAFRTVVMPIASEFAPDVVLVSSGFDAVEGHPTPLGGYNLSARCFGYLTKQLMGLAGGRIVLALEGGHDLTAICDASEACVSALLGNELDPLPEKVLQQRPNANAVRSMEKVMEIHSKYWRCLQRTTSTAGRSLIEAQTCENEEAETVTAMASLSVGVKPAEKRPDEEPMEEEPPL

[2] = Liver microsomal stability; format: in vitro ADME; details: read-out: Liver Microsomal Stability Estimation T1/2
Description: This study was conducted at Wuxi (http://www.wuxi.com/). […] A 5-μL aliquot of stock solution of test compound (10 mM; 100% DMSO) was diluted in 495 μL of […] (final concentration of 100 μM, 99% MeOH). Then, 50 μL of this intermediate solution was diluted in 450 μL of 100 mM potassium phosphate buffer to a concentration of 10 μM (working solution, 9.9% MeOH). The β-nicotinamide adenine dinucleotide phosphate reduced form (NADPH) regenerating system also contained tetrasodium salt, NADPH•4Na (Sigma, Cat.# No.00616). Human liver microsomes were obtained from Corning (Cat.#452117), and C57 mouse liver microsomes from Xenotech (Cat.#M5000), at a final concentration of 0.5 mg protein/mL. A volume of 10 μL of working solution of test and control compounds (testosterone, diclofenac and propafenone) and 80 μL/well microsome solution were added to a 96-well plate and incubated for 10 min at 37 °C. The reaction was started by the addition of 10 μL of NADPH regenerating system and stopped by the addition of 300 μL of stop solution (acetonitrile at 4 °C, including 100 ng/mL tolbutamide and 100 ng/mL of labetalol as internal standard) at different incubation times (0, 5, 10, 20, 30, and 60 min). Then, the samples were shaken for 10 min and centrifuged at 1699 g for 20 min at 4 °C. An aliquot of supernatant (100 μL) was transferred from each well and mixed with 300 μL of ultra-pure water before submitting to LC-MS/MS analysis. Concentrations of test and control compounds were quantified by LC-MS/MS using a peak area ratio of analyte/internal standard, and the percent loss of the parent compound was calculated at each time point to determine the half-life (t1/2, min). Experiments were performed in duplicate.

[3] = tested on: ML-2 xenograft in BALB/cA Rag2-/-γc-/- mice; test: Subcutaneous xenograft model (tumor volume, CD11b q-PCR, H3Ac, body weight); format: in vivo, mouse; details: for Tumor volume: ML-2 subcutaneous xenograft, individual mice (Fig 3B), in mm³; for body weight of mice: subcutaneous ML-2 AML mouse model, individual mice
Description: (§1) The subcutaneous xenograft models of ML-2 and MV4-11 derived cells, 5 × 10^6 and 10 × 10^6 cells, respectively, diluted in 100 µL of saline solution were subcutaneously inoculated in the back left flank of female BALB/cA Rag2^−/−γc^−/− mice. When tumors became palpable, the mice were randomized into three groups: vehicle, CM-444 and CM-1758, (eight animals/group). Treatment with 10 mg/kg of CM-444 or CM-1758 i.p. was started 4 days after injection when all mice presented subcutaneous tumors and was administered for 5 consecutive days followed by 2 resting days over 3 weeks for the ML-2 model or daily for 2 weeks for the MV4-11 model. The control group received only 80% saline solution, 10% DMSO […] 10% Tween 20 (diluents of CM-444 and CM-1758). Tumor size was analyzed every 2–3 days using the following method: […], where D and d corresponded to the longest and shortest diameter, respectively. The maximal tumor size/burden permitted by the Animal Care and Ethics Committee of the University of Navarra is 2000 mm^3. This maximal tumor size/burden was not exceeded in any case. ML-2 and MV4-11 tumors were explanted for differentiation and global histone acetylation analysis. Histones were extracted, and a western blot of H3Ac was performed as described above. For the differentiation study, RNA was extracted, and q-PCR of CD11b was performed as described above (CD11b sequence primer can be found in Supplementary Table 10).

[4] = tested on: MV4-11 xenograft in BALB/cA Rag2-/-γc-/- mice; test: as above; format: in vivo, mouse; details: for Tumor volume: MV4-11 subcutaneous xenograft, in mm³; for Tumor volume / body weight of mice: individual mice; for body weight of mice: subcutaneous MV4-11 AML mouse model
Description: as §1

CACO-2 permeability = format: in vitro ADME; details: human
Description: This study was conducted at Wuxi (http://www.wuxi.com/). Caco-2 cells (ATCC) were seeded onto polyethylene membranes in 96-well BD insert plates at 1 × 10^5 cells/cm^2, and the medium was changed every 4 days until the 21st to 28th day for confluent cell monolayer formation. Test compounds were diluted with transport buffer (HBSS with 10 mM HEPES at pH 7.4 ± 0.05) to a concentration of 2 µM (final DMSO concentration adjusted to <1%) and tested bi-directionally to investigate P-glycoprotein-mediated efflux in duplicate. Controls: digoxin (10 μM, bi-directionally), nanodolol and metoprolol (2 μM, apical, A, to basolateral, B). The permeation was assessed over a 120-minute incubation at 37 °C ± 1 °C and 5% CO2 at saturated humidity without shaking. Samples were mixed with acetonitrile containing internal standard and centrifuged at 1520 g for 10 min. Then, 100-μL aliquots of supernatant solutions were diluted with 100 μL of pure water. Concentrations of test and control compounds in starting solution, donor solution, and receiver solution were quantified by LC-MS/MS using a peak area ratio of analyte to internal standard. Permeation of lucifer yellow through the monolayer was measured to evaluate the cellular integrity. The results are the average of two biological replicates.

COc1cc2nc(-c3cc(C)oc3C)cc(NCC3CCN(c4ncc(C(=O)NO)cn4)CC3)c2cc1OC [CM-1758, 2-[4-[[[2-(2,5-dimethyl-3-furyl)-6,7-dimethoxy-4-quinolyl]amino]methyl] -1-piperidyl]pyrimidine-5-carbohydroxamic acid]
CD11b in blood samples ([1]; MOLM-13 i.v., 10 mg/kg i.p.): significant induction of CD11b
CD11b (%) ([1]; blood samples of mice engrafted intravenously with MOLM-13 cells, individual mice): 43.5% and 62.1% and 13.7% and 9.45% and 29.6% and 36.3% and 8.98% and 17.9% and 35.4% and 52.9% and 49.9%
IC50 (HDAC4): 130 nM
inhibition at 10 µM (HDAC4; 10 µM): 97%
half-life at 1 µM ([2]; C57, mouse liver microsomes): 12.5 min
half-life at 1 µM ([2]; human liver microsomes): 37.9 min
CD11b expression in explanted tumors ([3]; ML-2 s.c., 10 mg/kg i.p.): significant increase in CD11b expression
H3Ac levels in tumors ([3]; ML-2 s.c., 10 mg/kg i.p.): increase in H3Ac levels
tumor growth ([3]; ML-2 s.c., 10 mg/kg i.p., 5 days on/2 off, 3 weeks): inhibited tumor growth significantly
Tumor volume ([3]; day 0): 0
Tumor volume ([3]; day 8): 47.3386 and 22.9378 and 56.1402 and 38.666 and 38.4941 and 0 and 12.669 and 19.4742
Tumor volume ([3]; day 11): 71.6377 and 35.2331 and 55.0976 and 24.3685 and 43.9734 and 8.639 and 15.4625 and 6.7915
Tumor volume ([3]; day 13): 158.593 and 184.271 and 192.133 and 111.517 and 131.043 and 16.1706 and 35.0775 and 32.6327
Tumor volume ([3]; day 15): 338.357 and 436.616 and 344.697 and 149.062 and 276.144 and 73.6819 and 103.063 and 52.9756
Tumor volume ([3]; day 18): 450.141 and 971.066 and 667.169 and 309.135 and 557.655 and 200.834 and 266.198 and 84.0917
Tumor volume ([3]; day 20): 750.162 and 778.307 and 425.752 and 619.516 and 424.823 and 364.169 and 387.08 and 367.037
Relative H3Ac/H3 total levels ([3]; after in vivo treatment, subcutaneous ML-2 mouse model, western blot, individual tumors): 1.2836 and 1.288 and 1.719 and 8.364 and 1.323 and 1.1332
body weight of mice ([3]; day 4, in g (unit assumed)): 23.8 and 22.2 and 25.1 and 23.3 and 24.6 and 21 and 23.7 and 24.3
body weight of mice ([3]; day 6, in g (unit assumed)): 23 and 20.6 and 24.5 and 22.4 and 23.6 and 21.2 and 22.8 and 24.2
body weight of mice ([3]; day 8): 22.9 (2×) and 20.3 and 23.8 and 22.4 and 21.2 and 22 and 23.5
body weight of mice ([3]; day 11, in g (unit assumed)): 23 and 22.4 and 24.2 and 23.7 and 23.9 and 21.1 and 23.2 and 25.2
body weight of mice ([3]; day 13): 23 (2×) and 21.6 and 24.6 and 24 and 23.4 and 22 and 25.4
body weight of mice ([3]; day 15): 22.8 and 22 and 24.5 and 23.6 (2×) and 20.9 and 22.4 and 24.7
body weight of mice ([3]; day 18, in g (unit assumed)): 22.9 and 21.9 and 23.9 and 24 and 22.8 and 20.8 and 21.6 and 24.1
body weight of mice ([3]; day 20): 22.1 and 20.8 (2×) and 23.3 (2×) and 19.4 and 19.9 and 23.7
CD11b expression from tumors measured by q-PCR ([3]; tumors of the subcutaneous ML-2 model, individual tumors (Fig 3C)): 1.158 log10 (2-ΔΔCt) and 2.588 log10 (2-ΔΔCt) and 4.58 log10 (2-ΔΔCt) and 3.25 log10 (2-ΔΔCt) and 2.2558 log10 (2-ΔΔCt)
CD11b expression in explanted tumors ([4]; MV4-11 s.c., 10 mg/kg i.p.): significant increase in CD11b expression
H3Ac levels in tumors ([4]; MV4-11 s.c., 10 mg/kg i.p.): increase in H3Ac levels
tumor growth ([4]; MV4-11 s.c., 10 mg/kg i.p. daily, 2 weeks): inhibited tumor growth significantly
Tumor volume ([4]; day 0): 0
Tumor volume ([4]; day 7): 3.017
Tumor volume ([4]; day 9): 146.917 and 71.6651 and 143.551 and 106.303 and 28.6195 and 85.1833 and 49.7152 and 104.914 and 63.9744 and 234.732
Tumor volume ([4]; day 12): 419.824 and 122.408 and 229.873 and 238.093 and 102.721 and 299.024 and 103.513 and 178.679 and 140.065 and 433.026
Tumor volume ([4]; day 14): 415.95 and 158.115 and 375.793 and 401.985 and 154.443 and 348.449 and 102.044 and 262.858 and 231.325 and 547.206
Relative H3Ac/H3 total levels ([4]; after in vivo treatment, subcutaneous MV4-11 mouse model, western blot, individual tumors): 1.267 and 1.234 and 1.332 and 1.244 and 1.416 and 1.49
body weight of mice ([4]; day 1, in g (unit assumed)): 23.6 and 18.5 and 22.2 and 22.3 and 23.2 and 21.8 and 24.2 and 20.2 and 19.5 and 21.3
body weight of mice ([4]; day 5): 21.3 and 16.3 and 21.5 (2×) and 21.2 and 22.1 and 23 and 20 (2×) and 20.2
body weight of mice ([4]; day 7): 20.5 and 16.4 and 21.3 and 21.6 and 20.8 and 23.9 and 19.5 (2×) and 19.3 and 19.8
body weight of mice ([4]; day 9, in g (unit assumed)): 21 and 17.1 and 21.6 and 21.1 and 21.7 and 20.2 and 23.4 and 19.3 and 19.8 and 20.4
body weight of mice ([4]; day 12, in g (unit assumed)): 21.3 and 18 and 22.5 and 21.9 and 22.2 and 21.8 and 23.6 and 19.9 and 20.4 and 21.5
body weight of mice ([4]; day 14): 21.4 and 17.3 and 21.1 and 21.6 (2×) and 21.8 and 23.6 and 20 and 20.5 and 21
body weight of mice ([4]; day 16): 22.2 (2×) and 18.1 and 21.8 and 21.5 and 22.3 and 24.4 and 20.3 and 20.9 and 21.7
CD11b expression, log10 (2-ΔΔCt) ([4]; tumors of the subcutaneous MV4-11 model, q-PCR, individual tumors): 0.854 and 1.2584 and 2.36 and 1.145 and 1.034
efflux ratio at 120 min, 2 µM (CACO-2 permeability; Caco-2, pH 7.4): > 1050
Papp A→B at 120 min, 2 µM (CACO-2 permeability; Caco-2, pH 7.4, A to B): < 0.01 ×10⁻⁶ cm/s
